Measurements reported in patent publication US9868766B2, “Peptides as oxytocin agonists” (Hoffmann-La Roche Inc., priority 2012, dated 2018).
Positions of bridges follow the written chain, without caps; N, C: chain ends. Non-standard residues stand in square brackets, D forms with d. Residues, ends and D or L forms follow the SMILES beside them. Hyp = O=C(O)[C@@H]1C[C@@H](O)CN1; Cha = N[C@@H](CC1CCCCC1)C(=O)O; Tle = CC(C)(C)[C@H](N)C(=O)O; Nle = CCCC[C@H](N)C(=O)O; Sar = CNCC(=O)O

Legend:
Format in all cases: cell-based
human V2 receptor = molecular target: T1, human V2 receptor (Homo sapiens, UniProt P30518); test: Calcium flux assay (FLIPR), agonist mode, CHO cells expressing human V2 + Gqs5; conditions: for EC50: CHO cells stably expressing human V2 + chimeric Gqs5, calcium flux, read-out: hV2 EC50; for Emax: CHO, read-out: hV2 efficacy (%)
T1 construct: expressed in transfected cells
T1 sequence (P30518 whole entry): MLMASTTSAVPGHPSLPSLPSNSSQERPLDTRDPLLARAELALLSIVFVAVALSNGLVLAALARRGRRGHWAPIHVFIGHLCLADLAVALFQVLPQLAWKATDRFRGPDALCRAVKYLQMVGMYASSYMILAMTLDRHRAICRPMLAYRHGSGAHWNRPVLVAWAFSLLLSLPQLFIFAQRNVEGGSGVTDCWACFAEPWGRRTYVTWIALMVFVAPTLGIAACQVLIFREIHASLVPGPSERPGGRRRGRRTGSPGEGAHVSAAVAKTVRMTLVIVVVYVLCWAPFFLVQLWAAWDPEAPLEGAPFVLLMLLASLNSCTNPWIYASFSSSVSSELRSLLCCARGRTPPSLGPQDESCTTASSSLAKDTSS
From the text: (§1) Chines Hamster Ovary (CHO) cells were transfected with expression plasmids encoding either the human V1a, the human Oxytocin (OTR) or the humanV2 receptor, the later in combination with the chimeric Gqs5 G protein to redirect the signal to Calcium flux. Stable cells were cloned by limiting dilution to yield monoclonal cell lines expressing either human V1a, human V2+Gqs5 or human OTR receptors and selected based on functional responses detected on a fluorometric imaging plate reader (FLIPR) detecting Calcium flux in the cell after receptor activation. The stable cell lines were grown in F-12 K Nutrient Mixture (Kaighns Modification), containing 10% foetal bovine serum (FBS), 1% penicillin-streptomycin, 1% L-glutamate, 200 ug/ml Geneticin at 37° C. in a 10% CO2 incubator at 95% humidity.
(§2) On the afternoon before the assay, cells were plated at a density of 50,000 cells/well into black 96 well plates with clear bottoms to allow cell inspection and fluorescence measurements from the bottom of each well. The density of cells was sufficient to yield a confluent monolayer the next day. Hanks balanced salt solution, without phenol red, containing 20 mM HEPES (pH 7.3) and 2.5 mM probenecid (assay buffer) was prepared fresh for each experiment. Compound dilutions were made using a Beckman Biomek 2000 laboratory automation workstation, in assay buffer containing 1% DMSO. The dye-loading buffer consisted of a final concentration of 2 μM Fluo-4-AM (dissolved in DMSO and pluronic acid) in assay buffer. The existing culture media was removed from the wells and 100 μl of the dye-loading buffer was added to each well and incubated for approximately 60 min at 37° C. in a 5% CO2 incubator at 95% humidity. Once dye-loaded, the cells were washed thoroughly on an Embla cell washer with the assay buffer to remove any unincorporated dye. Exactly 100 μl assay buffer was left in each well.
(§3) Each 96 well plate containing dye-loaded cells was placed into the FLIPR machine and the laser intensity set to a suitable level to detect low basal fluorescence. To test compounds as agonists, 25 μl diluted compound was added to the plate 10 seconds into the fluorescent measurements and fluorescent response was recorded for 5 minutes. The fluorescence data was normalized to the endogenous full agonist dose-response set at 100% for the maximum response and 0% for the minimum. Each agonist concentration-response curve was constructed using a four parameter logistic equation with Microsoft Excel XLFit as follows: Y=Minimum+((Maximum−Minimum)/(1+10^(Log EC50-X)nH)), where y is the % normalized fluorescence, minimum is the minimum y, maximum is the maximum y, log EC50 is the log10 concentration which produces 50% of the maximum induced fluorescence, x is the log10 of the concentration of the agonist compound and H is the slope of the curve (the Hill Coefficient). The maximum value gives the efficacy of the agonist test compound in percentage. The concentration of agonist that produced a half-maximal response is represented by the EC50 value, the logarithm of which yielded the pEC50 value.

[1] = molecular target: T2, human Oxytocin (OTR) receptor (Homo sapiens, UniProt P30559); test: Calcium flux assay (FLIPR), agonist mode, CHO cells expressing human OTR; conditions: for EC50: CHO cells stably expressing human OTR, calcium flux, read-out: hOT EC50; for Emax: CHO, read-out: hOT efficacy (%)
T2 construct: expressed in transfected cells
T2 sequence (P30559 1-389): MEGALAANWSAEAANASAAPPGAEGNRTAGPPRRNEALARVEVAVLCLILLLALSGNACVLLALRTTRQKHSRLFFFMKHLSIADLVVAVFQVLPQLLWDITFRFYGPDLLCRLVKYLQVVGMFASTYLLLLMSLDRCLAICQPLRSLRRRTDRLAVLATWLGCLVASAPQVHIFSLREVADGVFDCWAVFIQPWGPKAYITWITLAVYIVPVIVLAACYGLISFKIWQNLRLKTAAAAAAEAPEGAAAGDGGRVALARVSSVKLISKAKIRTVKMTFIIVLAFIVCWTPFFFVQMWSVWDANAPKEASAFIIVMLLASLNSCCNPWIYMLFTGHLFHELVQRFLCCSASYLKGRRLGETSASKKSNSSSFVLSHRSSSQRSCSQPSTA
Outline: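 Monoclonal CHO cells stably expressing the receptor were loaded with 2 μM Fluo-4-AM in HBSS with 20 mM HEPES (pH 7.3) and 2.5 mM probenecid. Compound was added 10 s into reading and fluorescence followed for 5 min.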

human V1a receptor = molecular target: T3, human V1a receptor (Homo sapiens, UniProt P37288); test: Calcium flux assay (FLIPR), agonist mode, CHO cells expressing human V1a; conditions: CHO cells stably expressing human V1a; calcium flux; read-out: hV1a EC50
T3 construct: expressed in transfected cells
T3 sequence (P37288 whole entry): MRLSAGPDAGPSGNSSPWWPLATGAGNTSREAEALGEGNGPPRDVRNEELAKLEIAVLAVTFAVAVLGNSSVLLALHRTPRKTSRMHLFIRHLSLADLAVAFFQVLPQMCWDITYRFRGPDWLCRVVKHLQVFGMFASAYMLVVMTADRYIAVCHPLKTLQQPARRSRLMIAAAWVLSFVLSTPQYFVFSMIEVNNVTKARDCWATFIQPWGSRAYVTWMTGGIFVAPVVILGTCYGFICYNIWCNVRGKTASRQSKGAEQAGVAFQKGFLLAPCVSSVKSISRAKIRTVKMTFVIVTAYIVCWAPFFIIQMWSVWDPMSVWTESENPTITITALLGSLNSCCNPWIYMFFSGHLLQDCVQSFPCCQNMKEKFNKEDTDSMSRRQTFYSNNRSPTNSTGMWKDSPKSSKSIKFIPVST
From the text: as §1, §2, §3

[2] = maximum response normalized to endogenous full agonist = 100%

EC50 (human V2 receptor) [nM] | hV2 efficacy (%) (human V2 receptor; [2]) | EC50 [1] [nM] | hOT efficacy (%) [1, 2] [%] | EC50 (human V1a receptor) [nM] | Emax (human V2 receptor; [2]) [%] | Emax [1, 2] [%] | Structure (SMILES)
2190 |  | 0.4 |  | > 27000 | 117 | 124 | CCCC[C@H](NC(=O)CN(C)C(=O)[C@@H]1CCC(=O)NCC(=O)N[C@@H](Cc2ccc(O)cc2)C(=O)N[C@@H]([C@@H](C)CC)C(=O)N[C@@H](CCC(N)=O)C(=O)N[C@@H](CC(N)=O)C(=O)N1)C(=O)NCC(N)=O [Example 40] (GYIQNE[Sar][Nle]G-NH2; lactam N-6)
3810 |  | 0.6 |  | > 27000 | 91 | 113 | CC[C@H](C)[C@@H]1NC(=O)[C@H](Cc2ccc(O)cc2)NC(=O)CNC(=O)CC[C@@H](C(=O)N2C[C@H](O)C[C@H]2C(=O)N[C@@H](CC(C)C)C(=O)NCC(N)=O)NC(=O)[C@H](CC(N)=O)NC(=O)[C@H](CCC(N)=O)NC1=O [Example 45] (GYIQNE[Hyp]LG-NH2; lactam N-6)

Further lines, the compound ahead of its results:

Structure (SMILES) | EC50 (human V2 receptor) [nM] | hV2 efficacy (%) (human V2 receptor; [2]) | EC50 [1] [nM] | hOT efficacy (%) [1, 2] [%] | EC50 (human V1a receptor) [nM] | Emax (human V2 receptor; [2]) [%] | Emax [1, 2] [%]
CC[C@H](C)[C@@H]1NC(=O)[C@H](Cc2ccc(O)cc2)NC(=O)CNC(=O)CC[C@@H](C(=O)N(C)CC(=O)N[C@@H](Cc2c[nH]cn2)C(=O)NCC(N)=O)NC(=O)[C@H](CC(N)=O)NC(=O)[C@H](CCC(N)=O)NC1=O [Example 34] (GYIQNE[Sar]HG-NH2; lactam N-6) | 145 | 120 | 10 | 136 | > 10000 |  | 
CC[C@H](C)[C@@H]1NC(=O)[C@H](Cc2ccc(O)cc2)NC(=O)CNC(=O)CC[C@@H](C(=O)N(C)CC(=O)N[C@@H](CC2CCCCC2)C(=O)NCC(N)=O)NC(=O)[C@H](CC(N)=O)NC(=O)[C@H](CCC(N)=O)NC1=O [Example 39] (GYIQNE[Sar][Cha]G-NH2; lactam N-6) | 3710 |  | 0.4 |  | > 27000 | 111 | 122
CC[C@H](C)[C@@H]1NC(=O)[C@H](Cc2ccc(O)cc2)NC(=O)CNC(=O)CC[C@@H](C(=O)N(C)CC(=O)N[C@H](C(=O)NCC(N)=O)C(C)(C)C)NC(=O)[C@H](CC(N)=O)NC(=O)[C@H](CCC(N)=O)NC1=O [Example 44] (GYIQNE[Sar][Tle]G-NH2; lactam N-6) | 1230 |  | 0.5 |  | > 27000 | 112 | 117
